From ChEMBL document CHEMBL3991601, “The target landscape of clinical kinase drugs” (Science, 2017)
The source made the active and inactive calls. Cut-off read from the data, not from the text of the source, for most assays here: actives have a measured Kd and inactives only a lower limit.

Each compound was assayed against Serine/threonine-protein kinase 16 (Homo sapiens, UniProt O75716).
Note: in the data inactive means no Kd found up to 30 µM.

Sequence of Serine/threonine-protein kinase 16 (O75716 whole entry): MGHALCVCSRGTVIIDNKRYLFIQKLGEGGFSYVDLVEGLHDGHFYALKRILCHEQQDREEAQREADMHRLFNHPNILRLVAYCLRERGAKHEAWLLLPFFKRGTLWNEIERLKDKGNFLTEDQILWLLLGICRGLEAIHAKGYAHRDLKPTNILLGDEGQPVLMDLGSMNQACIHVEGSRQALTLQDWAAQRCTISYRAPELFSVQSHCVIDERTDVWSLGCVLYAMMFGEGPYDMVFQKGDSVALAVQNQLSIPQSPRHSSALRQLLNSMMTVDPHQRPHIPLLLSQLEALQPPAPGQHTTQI

SMILES	Kd
C[C@@H](Nc1cc(F)cc(F)c1)c1cc(C(=O)N(C)C)cc2c(=O)cc(N3CCOCC3)oc12 [AZD-8186]	> 30 µM (inactive)
Cc1cc2c(F)c(Oc3ncnn4cc(OC[C@@H](C)OC(=O)[C@H](C)N)c(C)c34)ccc2[nH]1 [BRIVANIB ALANINATE]	> 30 µM (inactive)
C[C@@H](c1ccc2nccn2c1)n1nnc2ncc(-c3cnn(C)c3)nc21 [SAVOLITINIB]	> 30 µM (inactive)

The compounds below were run against Tyrosine-protein kinase Yes (Homo sapiens, UniProt P07947).
Sequence of Tyrosine-protein kinase Yes (P07947 whole entry): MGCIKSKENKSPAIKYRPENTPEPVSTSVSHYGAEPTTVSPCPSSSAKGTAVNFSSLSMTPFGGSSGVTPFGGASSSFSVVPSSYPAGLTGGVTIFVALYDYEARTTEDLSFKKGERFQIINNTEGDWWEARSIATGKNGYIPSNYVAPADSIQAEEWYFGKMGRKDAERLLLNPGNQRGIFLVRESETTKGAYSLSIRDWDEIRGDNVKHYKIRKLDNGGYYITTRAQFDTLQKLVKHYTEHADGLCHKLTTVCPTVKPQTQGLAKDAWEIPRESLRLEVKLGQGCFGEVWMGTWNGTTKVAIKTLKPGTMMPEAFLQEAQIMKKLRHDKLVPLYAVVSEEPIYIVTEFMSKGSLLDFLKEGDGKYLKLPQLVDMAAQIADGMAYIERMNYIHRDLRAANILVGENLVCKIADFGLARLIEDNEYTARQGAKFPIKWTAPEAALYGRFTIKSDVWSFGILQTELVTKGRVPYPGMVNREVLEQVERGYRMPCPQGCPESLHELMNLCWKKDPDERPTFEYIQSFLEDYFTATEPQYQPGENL

SMILES	Kd
C[C@@H](Nc1cc(F)cc(F)c1)c1cc(C(=O)N(C)C)cc2c(=O)cc(N3CCOCC3)oc12 [AZD-8186]	> 30 µM (inactive)
Cc1cc2c(F)c(Oc3ncnn4cc(OC[C@@H](C)OC(=O)[C@H](C)N)c(C)c34)ccc2[nH]1 [BRIVANIB ALANINATE]	> 30 µM (inactive)
C[C@@H](c1ccc2nccn2c1)n1nnc2ncc(-c3cnn(C)c3)nc21 [SAVOLITINIB]	> 30 µM (inactive)

These compounds were tested against T1, Ferrochelatase, mitochondrial (Homo sapiens, UniProt P22830).
T1 sequence (P22830 whole entry): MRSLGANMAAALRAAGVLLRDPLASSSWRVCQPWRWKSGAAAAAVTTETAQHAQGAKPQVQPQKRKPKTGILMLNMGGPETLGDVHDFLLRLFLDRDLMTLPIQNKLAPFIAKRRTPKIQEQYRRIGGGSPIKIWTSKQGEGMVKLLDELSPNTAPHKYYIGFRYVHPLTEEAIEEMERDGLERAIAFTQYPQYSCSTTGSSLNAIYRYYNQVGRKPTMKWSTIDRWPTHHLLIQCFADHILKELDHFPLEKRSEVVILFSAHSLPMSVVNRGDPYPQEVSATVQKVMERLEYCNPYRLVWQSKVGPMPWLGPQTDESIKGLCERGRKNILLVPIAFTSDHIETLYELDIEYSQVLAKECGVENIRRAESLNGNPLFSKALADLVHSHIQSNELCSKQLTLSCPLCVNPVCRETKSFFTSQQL

SMILES	Kd
C[C@@H](Nc1cc(F)cc(F)c1)c1cc(C(=O)N(C)C)cc2c(=O)cc(N3CCOCC3)oc12 [AZD-8186]	> 30 µM (inactive)
Cc1cc2c(F)c(Oc3ncnn4cc(OC[C@@H](C)OC(=O)[C@H](C)N)c(C)c34)ccc2[nH]1 [BRIVANIB ALANINATE]	> 30 µM (inactive)
C[C@@H](c1ccc2nccn2c1)n1nnc2ncc(-c3cnn(C)c3)nc21 [SAVOLITINIB]	> 30 µM (inactive)

What follows are compounds tested against Proto-oncogene tyrosine-protein kinase Src (Homo sapiens, UniProt P12931).
Sequence of Proto-oncogene tyrosine-protein kinase Src (P12931 2-536 limits assumed): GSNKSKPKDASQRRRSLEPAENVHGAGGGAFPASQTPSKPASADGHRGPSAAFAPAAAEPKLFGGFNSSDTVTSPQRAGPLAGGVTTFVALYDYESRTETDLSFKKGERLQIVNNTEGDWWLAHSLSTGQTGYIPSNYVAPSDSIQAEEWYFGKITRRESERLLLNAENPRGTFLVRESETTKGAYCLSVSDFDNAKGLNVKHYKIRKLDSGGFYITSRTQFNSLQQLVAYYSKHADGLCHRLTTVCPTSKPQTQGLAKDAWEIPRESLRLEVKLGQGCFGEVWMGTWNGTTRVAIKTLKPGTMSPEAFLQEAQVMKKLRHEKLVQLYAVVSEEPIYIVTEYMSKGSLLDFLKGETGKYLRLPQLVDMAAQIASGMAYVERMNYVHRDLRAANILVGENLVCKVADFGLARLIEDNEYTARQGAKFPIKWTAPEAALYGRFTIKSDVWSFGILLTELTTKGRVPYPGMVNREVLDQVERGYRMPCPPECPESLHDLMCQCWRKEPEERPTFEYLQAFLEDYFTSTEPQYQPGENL

SMILES	Kd
C[C@@H](Nc1cc(F)cc(F)c1)c1cc(C(=O)N(C)C)cc2c(=O)cc(N3CCOCC3)oc12 [AZD-8186]	> 30 µM (inactive)
Cc1cc2c(F)c(Oc3ncnn4cc(OC[C@@H](C)OC(=O)[C@H](C)N)c(C)c34)ccc2[nH]1 [BRIVANIB ALANINATE]	> 30 µM (inactive)
C[C@@H](c1ccc2nccn2c1)n1nnc2ncc(-c3cnn(C)c3)nc21 [SAVOLITINIB]	> 30 µM (inactive)

The compounds below were run against T2, Ras-related protein Rab-27A (Homo sapiens, UniProt P51159).
T2 sequence (P51159 whole entry): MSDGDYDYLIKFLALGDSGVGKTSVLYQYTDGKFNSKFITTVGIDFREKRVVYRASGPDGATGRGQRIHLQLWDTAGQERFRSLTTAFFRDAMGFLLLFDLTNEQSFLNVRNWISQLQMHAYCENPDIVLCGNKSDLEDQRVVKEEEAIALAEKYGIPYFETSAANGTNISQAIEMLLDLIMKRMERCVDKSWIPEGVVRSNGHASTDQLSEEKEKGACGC

SMILES	Kd
C[C@@H](Nc1cc(F)cc(F)c1)c1cc(C(=O)N(C)C)cc2c(=O)cc(N3CCOCC3)oc12 [AZD-8186]	> 30 µM (inactive)
Cc1cc2c(F)c(Oc3ncnn4cc(OC[C@@H](C)OC(=O)[C@H](C)N)c(C)c34)ccc2[nH]1 [BRIVANIB ALANINATE]	> 30 µM (inactive)
C[C@@H](c1ccc2nccn2c1)n1nnc2ncc(-c3cnn(C)c3)nc21 [SAVOLITINIB]	> 30 µM (inactive)

These compounds were tested against T3, DNA replication licensing factor MCM4 (Homo sapiens, UniProt P33991).
T3 sequence (P33991 whole entry): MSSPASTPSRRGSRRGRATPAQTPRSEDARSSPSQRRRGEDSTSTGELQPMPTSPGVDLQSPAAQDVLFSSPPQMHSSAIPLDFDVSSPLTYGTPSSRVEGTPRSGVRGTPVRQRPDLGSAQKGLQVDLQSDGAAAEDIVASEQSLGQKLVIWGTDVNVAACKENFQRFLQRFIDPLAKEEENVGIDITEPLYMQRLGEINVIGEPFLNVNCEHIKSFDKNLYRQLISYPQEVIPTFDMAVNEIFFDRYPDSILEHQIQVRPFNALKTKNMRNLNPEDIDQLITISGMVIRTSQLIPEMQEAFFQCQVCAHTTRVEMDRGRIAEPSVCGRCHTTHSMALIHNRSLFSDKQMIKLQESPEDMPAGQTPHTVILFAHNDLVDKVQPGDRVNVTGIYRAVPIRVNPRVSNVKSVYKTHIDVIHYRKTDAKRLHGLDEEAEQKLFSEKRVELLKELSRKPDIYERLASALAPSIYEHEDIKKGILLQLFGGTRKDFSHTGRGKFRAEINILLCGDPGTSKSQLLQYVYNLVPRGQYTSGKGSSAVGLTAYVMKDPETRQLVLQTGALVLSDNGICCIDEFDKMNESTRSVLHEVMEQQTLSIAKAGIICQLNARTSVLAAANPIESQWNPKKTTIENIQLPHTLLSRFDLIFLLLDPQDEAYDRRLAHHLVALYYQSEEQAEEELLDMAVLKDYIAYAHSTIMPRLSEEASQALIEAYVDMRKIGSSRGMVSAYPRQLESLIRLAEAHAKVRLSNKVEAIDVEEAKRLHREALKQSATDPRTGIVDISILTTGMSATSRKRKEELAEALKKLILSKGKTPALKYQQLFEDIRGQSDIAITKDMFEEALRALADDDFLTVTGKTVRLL

SMILES	Kd
C[C@@H](Nc1cc(F)cc(F)c1)c1cc(C(=O)N(C)C)cc2c(=O)cc(N3CCOCC3)oc12 [AZD-8186]	> 30 µM (inactive)
Cc1cc2c(F)c(Oc3ncnn4cc(OC[C@@H](C)OC(=O)[C@H](C)N)c(C)c34)ccc2[nH]1 [BRIVANIB ALANINATE]	> 30 µM (inactive)
C[C@@H](c1ccc2nccn2c1)n1nnc2ncc(-c3cnn(C)c3)nc21 [SAVOLITINIB]	> 30 µM (inactive)

What follows are compounds tested against Protein-tyrosine kinase 6 (Homo sapiens, UniProt Q13882).
Sequence of Protein-tyrosine kinase 6 (Q13882 whole entry): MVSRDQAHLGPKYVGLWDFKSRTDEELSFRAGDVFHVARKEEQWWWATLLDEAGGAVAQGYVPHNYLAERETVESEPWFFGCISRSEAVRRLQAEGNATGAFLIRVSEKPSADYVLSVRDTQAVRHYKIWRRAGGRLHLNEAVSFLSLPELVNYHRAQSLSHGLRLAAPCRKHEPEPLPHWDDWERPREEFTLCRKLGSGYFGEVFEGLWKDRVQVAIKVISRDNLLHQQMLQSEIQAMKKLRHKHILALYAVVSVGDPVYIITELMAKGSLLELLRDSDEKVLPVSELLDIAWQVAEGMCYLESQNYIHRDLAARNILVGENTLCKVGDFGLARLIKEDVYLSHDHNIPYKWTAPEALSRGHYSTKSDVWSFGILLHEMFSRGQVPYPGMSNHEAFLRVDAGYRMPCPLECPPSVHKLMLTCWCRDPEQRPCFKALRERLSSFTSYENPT

SMILES	Kd
C[C@@H](Nc1cc(F)cc(F)c1)c1cc(C(=O)N(C)C)cc2c(=O)cc(N3CCOCC3)oc12 [AZD-8186]	> 30 µM (inactive)
Cc1cc2c(F)c(Oc3ncnn4cc(OC[C@@H](C)OC(=O)[C@H](C)N)c(C)c34)ccc2[nH]1 [BRIVANIB ALANINATE]	> 30 µM (inactive)
C[C@@H](c1ccc2nccn2c1)n1nnc2ncc(-c3cnn(C)c3)nc21 [SAVOLITINIB]	> 30 µM (inactive)

These compounds were tested against Mitotic checkpoint serine/threonine-protein kinase BUB1 (Homo sapiens, UniProt O43683).

SMILES	Kd
C[C@@H](Nc1cc(F)cc(F)c1)c1cc(C(=O)N(C)C)cc2c(=O)cc(N3CCOCC3)oc12 [AZD-8186]	> 30 µM (inactive)
Cc1cc2c(F)c(Oc3ncnn4cc(OC[C@@H](C)OC(=O)[C@H](C)N)c(C)c34)ccc2[nH]1 [BRIVANIB ALANINATE]	> 30 µM (inactive)

Each compound was assayed against T4, ADP/ATP translocase 3 (Homo sapiens, UniProt P12236).
T4 sequence (P12236 whole entry): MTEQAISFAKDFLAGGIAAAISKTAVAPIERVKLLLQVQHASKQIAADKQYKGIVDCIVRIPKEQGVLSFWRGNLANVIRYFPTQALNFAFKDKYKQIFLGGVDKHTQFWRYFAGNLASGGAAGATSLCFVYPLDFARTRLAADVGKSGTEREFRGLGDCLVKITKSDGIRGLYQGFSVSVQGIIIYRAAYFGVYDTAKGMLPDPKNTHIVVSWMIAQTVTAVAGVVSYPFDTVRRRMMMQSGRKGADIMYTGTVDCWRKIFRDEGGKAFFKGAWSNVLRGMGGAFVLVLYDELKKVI

SMILES	Kd
C[C@@H](Nc1cc(F)cc(F)c1)c1cc(C(=O)N(C)C)cc2c(=O)cc(N3CCOCC3)oc12 [AZD-8186]	> 30 µM (inactive)
Cc1cc2c(F)c(Oc3ncnn4cc(OC[C@@H](C)OC(=O)[C@H](C)N)c(C)c34)ccc2[nH]1 [BRIVANIB ALANINATE]	> 30 µM (inactive)
C[C@@H](c1ccc2nccn2c1)n1nnc2ncc(-c3cnn(C)c3)nc21 [SAVOLITINIB]	> 30 µM (inactive)

What follows are compounds tested against Ras-related protein Rab-6A (Homo sapiens, UniProt P20340).
Sequence of Ras-related protein Rab-6A (P20340 whole entry): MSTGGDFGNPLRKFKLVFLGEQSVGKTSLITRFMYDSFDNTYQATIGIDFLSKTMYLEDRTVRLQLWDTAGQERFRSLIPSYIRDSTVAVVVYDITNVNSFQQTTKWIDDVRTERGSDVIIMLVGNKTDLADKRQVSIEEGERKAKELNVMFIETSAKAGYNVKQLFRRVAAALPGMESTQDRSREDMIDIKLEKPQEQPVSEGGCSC

SMILES	Kd
C[C@@H](Nc1cc(F)cc(F)c1)c1cc(C(=O)N(C)C)cc2c(=O)cc(N3CCOCC3)oc12 [AZD-8186]	> 30 µM (inactive)
Cc1cc2c(F)c(Oc3ncnn4cc(OC[C@@H](C)OC(=O)[C@H](C)N)c(C)c34)ccc2[nH]1 [BRIVANIB ALANINATE]	> 30 µM (inactive)
C[C@@H](c1ccc2nccn2c1)n1nnc2ncc(-c3cnn(C)c3)nc21 [SAVOLITINIB]	> 30 µM (inactive)

These compounds were tested against Rho-associated protein kinase 1 (Homo sapiens, UniProt Q13464).
Sequence of Rho-associated protein kinase 1 (Q13464 whole entry): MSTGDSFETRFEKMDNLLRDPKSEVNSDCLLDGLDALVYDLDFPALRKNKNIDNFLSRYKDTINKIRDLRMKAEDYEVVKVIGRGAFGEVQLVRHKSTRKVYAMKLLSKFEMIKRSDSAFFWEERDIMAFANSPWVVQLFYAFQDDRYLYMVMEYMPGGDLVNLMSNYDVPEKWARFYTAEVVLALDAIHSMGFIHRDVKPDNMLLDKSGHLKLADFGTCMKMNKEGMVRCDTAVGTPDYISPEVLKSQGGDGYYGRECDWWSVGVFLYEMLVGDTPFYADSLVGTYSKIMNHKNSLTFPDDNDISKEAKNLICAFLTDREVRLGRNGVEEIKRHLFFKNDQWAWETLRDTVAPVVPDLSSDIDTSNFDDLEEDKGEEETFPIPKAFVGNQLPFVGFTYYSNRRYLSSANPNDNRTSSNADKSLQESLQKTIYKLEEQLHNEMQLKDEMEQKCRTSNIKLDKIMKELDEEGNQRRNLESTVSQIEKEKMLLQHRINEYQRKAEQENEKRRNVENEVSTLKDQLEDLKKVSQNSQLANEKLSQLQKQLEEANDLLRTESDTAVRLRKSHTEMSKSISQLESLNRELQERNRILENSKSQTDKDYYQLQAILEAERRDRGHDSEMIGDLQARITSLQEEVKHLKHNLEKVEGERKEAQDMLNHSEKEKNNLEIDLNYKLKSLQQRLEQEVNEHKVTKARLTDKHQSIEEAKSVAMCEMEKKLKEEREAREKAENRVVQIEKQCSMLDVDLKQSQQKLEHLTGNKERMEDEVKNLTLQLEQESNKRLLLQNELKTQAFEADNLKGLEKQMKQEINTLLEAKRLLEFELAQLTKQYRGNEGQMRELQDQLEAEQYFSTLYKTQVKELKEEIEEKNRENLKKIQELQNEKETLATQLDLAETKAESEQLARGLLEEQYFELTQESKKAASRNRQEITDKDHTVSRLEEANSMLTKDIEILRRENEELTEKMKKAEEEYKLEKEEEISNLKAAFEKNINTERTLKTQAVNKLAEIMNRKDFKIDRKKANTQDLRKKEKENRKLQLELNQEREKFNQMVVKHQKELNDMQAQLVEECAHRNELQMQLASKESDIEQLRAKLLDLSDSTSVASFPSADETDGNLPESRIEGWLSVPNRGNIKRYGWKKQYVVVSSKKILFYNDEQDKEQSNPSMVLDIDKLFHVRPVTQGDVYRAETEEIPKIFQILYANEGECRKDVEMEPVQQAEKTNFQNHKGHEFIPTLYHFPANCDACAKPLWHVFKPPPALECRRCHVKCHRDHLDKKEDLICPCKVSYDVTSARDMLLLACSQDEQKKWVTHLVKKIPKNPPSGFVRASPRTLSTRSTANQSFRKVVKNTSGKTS

SMILES	Kd
C[C@@H](Nc1cc(F)cc(F)c1)c1cc(C(=O)N(C)C)cc2c(=O)cc(N3CCOCC3)oc12 [AZD-8186]	> 30 µM (inactive)
Cc1cc2c(F)c(Oc3ncnn4cc(OC[C@@H](C)OC(=O)[C@H](C)N)c(C)c34)ccc2[nH]1 [BRIVANIB ALANINATE]	> 30 µM (inactive)
C[C@@H](c1ccc2nccn2c1)n1nnc2ncc(-c3cnn(C)c3)nc21 [SAVOLITINIB]	> 30 µM (inactive)

These compounds were tested against Mitogen-activated protein kinase kinase kinase kinase 5 (Homo sapiens, UniProt Q9Y4K4).
Sequence of Mitogen-activated protein kinase kinase kinase kinase 5 (Q9Y4K4 whole entry): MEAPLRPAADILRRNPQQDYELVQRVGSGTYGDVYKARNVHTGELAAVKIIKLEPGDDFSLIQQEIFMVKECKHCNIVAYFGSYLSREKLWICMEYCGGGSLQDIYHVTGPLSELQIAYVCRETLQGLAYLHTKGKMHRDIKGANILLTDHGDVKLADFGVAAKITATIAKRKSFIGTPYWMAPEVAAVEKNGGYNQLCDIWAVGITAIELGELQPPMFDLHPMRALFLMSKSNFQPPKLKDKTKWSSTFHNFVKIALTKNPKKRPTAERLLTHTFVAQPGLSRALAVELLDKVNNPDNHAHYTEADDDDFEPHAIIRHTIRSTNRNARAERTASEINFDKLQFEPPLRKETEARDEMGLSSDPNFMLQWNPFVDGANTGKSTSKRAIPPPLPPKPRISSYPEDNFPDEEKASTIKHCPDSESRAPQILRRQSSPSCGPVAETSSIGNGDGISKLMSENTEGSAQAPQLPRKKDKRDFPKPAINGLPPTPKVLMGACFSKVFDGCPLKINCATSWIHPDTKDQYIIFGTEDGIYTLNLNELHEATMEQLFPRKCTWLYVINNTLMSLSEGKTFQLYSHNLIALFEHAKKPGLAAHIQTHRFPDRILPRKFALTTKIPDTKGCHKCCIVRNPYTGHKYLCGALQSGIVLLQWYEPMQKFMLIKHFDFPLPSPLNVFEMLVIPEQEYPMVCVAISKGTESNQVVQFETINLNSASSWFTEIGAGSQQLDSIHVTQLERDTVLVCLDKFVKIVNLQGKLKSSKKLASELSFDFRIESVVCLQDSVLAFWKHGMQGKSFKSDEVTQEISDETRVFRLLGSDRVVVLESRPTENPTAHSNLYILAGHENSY

SMILES	Kd
C[C@@H](Nc1cc(F)cc(F)c1)c1cc(C(=O)N(C)C)cc2c(=O)cc(N3CCOCC3)oc12 [AZD-8186]	> 30 µM (inactive)
Cc1cc2c(F)c(Oc3ncnn4cc(OC[C@@H](C)OC(=O)[C@H](C)N)c(C)c34)ccc2[nH]1 [BRIVANIB ALANINATE]	> 30 µM (inactive)
C[C@@H](c1ccc2nccn2c1)n1nnc2ncc(-c3cnn(C)c3)nc21 [SAVOLITINIB]	> 30 µM (inactive)

The compounds below were run against T5, Interleukin-1 receptor-associated kinase 3 (Homo sapiens, UniProt Q9Y616).
T5 sequence (Q9Y616 whole entry): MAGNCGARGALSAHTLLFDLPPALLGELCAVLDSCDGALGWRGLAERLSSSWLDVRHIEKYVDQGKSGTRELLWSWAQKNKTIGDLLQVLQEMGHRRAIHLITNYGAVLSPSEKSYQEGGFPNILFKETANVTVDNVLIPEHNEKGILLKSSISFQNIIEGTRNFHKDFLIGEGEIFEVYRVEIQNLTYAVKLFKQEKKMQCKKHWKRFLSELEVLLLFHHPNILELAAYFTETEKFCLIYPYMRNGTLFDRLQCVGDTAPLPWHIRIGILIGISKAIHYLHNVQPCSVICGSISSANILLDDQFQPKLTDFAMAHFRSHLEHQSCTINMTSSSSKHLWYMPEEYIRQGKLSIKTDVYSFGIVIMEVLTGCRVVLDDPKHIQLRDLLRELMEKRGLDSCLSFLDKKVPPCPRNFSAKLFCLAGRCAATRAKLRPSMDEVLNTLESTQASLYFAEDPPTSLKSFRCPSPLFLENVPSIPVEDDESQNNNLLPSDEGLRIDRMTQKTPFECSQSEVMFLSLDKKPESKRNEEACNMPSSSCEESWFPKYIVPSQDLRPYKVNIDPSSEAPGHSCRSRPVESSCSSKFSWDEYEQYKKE

SMILES	Kd
C[C@@H](Nc1cc(F)cc(F)c1)c1cc(C(=O)N(C)C)cc2c(=O)cc(N3CCOCC3)oc12 [AZD-8186]	> 30 µM (inactive)
Cc1cc2c(F)c(Oc3ncnn4cc(OC[C@@H](C)OC(=O)[C@H](C)N)c(C)c34)ccc2[nH]1 [BRIVANIB ALANINATE]	> 30 µM (inactive)
C[C@@H](c1ccc2nccn2c1)n1nnc2ncc(-c3cnn(C)c3)nc21 [SAVOLITINIB]	> 30 µM (inactive)
